From PMC10254914, “Targeting Transcriptional CDKs 7, 8, and 9 with Anilinopyrimidine Derivatives as Anticancer Agents: Design, Synthesis, Biological Evaluation and In Silico Studies” (Molecules, 2023)

Experiments:
[1] = molecular target: CDK7/CycT1 (Homo sapiens, UniProt P50613); test: In vitro CDK7 enzyme inhibition assay
Method: (§1) The CDK enzyme assay was performed as previously described [63].

[2] = system: HCT116 (colorectal carcinoma); test: MTT antiproliferative assay, HCT116; settings: Homo sapiens, HCT-116, read-out: IC50 (µM) HCT116
Description: (§2) The cell lines mentioned above were used to determine the inhibitory effects of the compounds on cell growth using the MTT assay.

[3] = molecular target: CDK8 (Homo sapiens, UniProt P49336); test: In vitro CDK8 enzyme inhibition assay
Method: as §1

[4] = system: HeLa (cervical epithelioid carcinoma); test: MTT antiproliferative assay, HeLa; settings: Homo sapiens, read-out: IC50 (µM) HeLa
Description: as §2

[5] = molecular target: T1, CDK9/CycT1 (Homo sapiens, UniProt P50750); test: Ligand efficiency and ligand lipophilic efficiency (DataWarrior); settings: for LE: LE=−RTlnIC50/N; for LLE: LLE=pIC50−clogP
Method: Ligand efficiency is an important parameter that is widely used in the development of drug measures to quantify the molecular properties, particularly the size and lipophilicity of small molecules, required to gain binding affinity to a drug target. The LE values of the synthesized compounds were measured using DataWarrior employing the following equation [48]: LE=−RTlnIC50/N where R is the universal gas constant, T is the absolute temperature in Kelvin, and N represents the number of heavy atoms, that is, non-hydrogen atoms in the drug.
LE is widely used for the selection and optimization of fragments, hits, and leads. […] Compounds with LE values higher than 0.3 are promising lead compounds.
In drug discovery and development, it is challenging to optimize the compound activity while maintaining a constant lipophilicity. As a result, LLE is an effective approach to control molecule lipophilicity to evade any “molecular obesity” through lead optimization. These were obtained via DataWarrior, according to the following equation [50]: LLE=pIC50−clogP
An acceptable lead compound should have an LLE value ≥5. As depicted in Table 6, 5j has acceptable LLE values. However, other compounds have values below the recommended limit.

[6] = system: normal fibroblast cell line, WI-38; test: MTT cytotoxicity in normal fibroblasts WI-38; settings: Homo sapiens, WI-38, read-out: IC50 (µM) WI-38
Method: The MTT assay was performed to evaluate the in vitro antitumor activity of the synthesized 4-anilinoquinazolines according to a previously reported method [59, 60, 61, 62, 63].

[7] = system: MCF7 (mammary gland breast cancer); test: MTT antiproliferative assay, MCF7; settings: Homo sapiens, MCF7, read-out: IC50 (µM) MCF7
Description: as §2

[8] = system: HepG2 (hepatocellular carcinoma); test: MTT antiproliferative assay, HepG2; settings: Homo sapiens, HepG2, read-out: IC50 (µM) HepG2
Description: as §2

[9] = molecular target: T1, CDK9/CycT1; test: In vitro CDK9/cyclin T1 enzyme inhibition assay
Method: as §1

[10] = system: HCT116, HepG2, HeLa, MCF7 cancer cell lines; test: MTT assay, ranges over the cancer cell line panel; settings: Homo sapiens, read-out: IC50 range over the tested cancer cell lines
Description: as §2

[11] = pIC 50, from the CDK9 IC50 of Table 6
[12] = IC50 (µM) CDK9/CycT1, dose-response curves, repeated in Table 6

Sequence of CDK7/CycT1 (P50613 whole entry): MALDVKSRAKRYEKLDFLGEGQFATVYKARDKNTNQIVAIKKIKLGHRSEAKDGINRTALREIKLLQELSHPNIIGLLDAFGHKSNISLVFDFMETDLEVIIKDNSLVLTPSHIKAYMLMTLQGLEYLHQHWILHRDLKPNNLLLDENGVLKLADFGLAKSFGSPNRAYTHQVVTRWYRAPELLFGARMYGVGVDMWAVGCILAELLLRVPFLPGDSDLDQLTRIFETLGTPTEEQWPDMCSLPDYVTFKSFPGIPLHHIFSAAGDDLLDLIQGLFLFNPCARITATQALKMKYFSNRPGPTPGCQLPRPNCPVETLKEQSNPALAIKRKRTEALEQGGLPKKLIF
Sequence of CDK7/CycT1 (P51946 whole entry partner): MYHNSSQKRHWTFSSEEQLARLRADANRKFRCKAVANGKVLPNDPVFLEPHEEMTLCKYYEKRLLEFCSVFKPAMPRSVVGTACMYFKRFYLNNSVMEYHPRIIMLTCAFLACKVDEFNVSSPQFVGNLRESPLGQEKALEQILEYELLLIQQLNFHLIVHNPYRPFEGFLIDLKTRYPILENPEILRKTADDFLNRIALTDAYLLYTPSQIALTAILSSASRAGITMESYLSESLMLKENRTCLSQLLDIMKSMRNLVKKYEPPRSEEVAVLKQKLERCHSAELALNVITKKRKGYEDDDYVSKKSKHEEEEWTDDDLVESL
T1 sequence (P50750 whole entry): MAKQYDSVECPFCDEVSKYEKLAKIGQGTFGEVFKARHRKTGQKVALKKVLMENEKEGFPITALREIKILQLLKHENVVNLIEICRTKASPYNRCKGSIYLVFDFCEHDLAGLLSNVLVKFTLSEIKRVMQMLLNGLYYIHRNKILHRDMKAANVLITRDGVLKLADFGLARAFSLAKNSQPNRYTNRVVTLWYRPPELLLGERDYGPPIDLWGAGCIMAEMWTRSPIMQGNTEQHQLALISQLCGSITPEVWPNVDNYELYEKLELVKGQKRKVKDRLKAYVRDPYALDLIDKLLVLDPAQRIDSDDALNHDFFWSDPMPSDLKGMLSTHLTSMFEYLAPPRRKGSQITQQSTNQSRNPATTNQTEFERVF
T1 sequence (O60563 whole entry partner): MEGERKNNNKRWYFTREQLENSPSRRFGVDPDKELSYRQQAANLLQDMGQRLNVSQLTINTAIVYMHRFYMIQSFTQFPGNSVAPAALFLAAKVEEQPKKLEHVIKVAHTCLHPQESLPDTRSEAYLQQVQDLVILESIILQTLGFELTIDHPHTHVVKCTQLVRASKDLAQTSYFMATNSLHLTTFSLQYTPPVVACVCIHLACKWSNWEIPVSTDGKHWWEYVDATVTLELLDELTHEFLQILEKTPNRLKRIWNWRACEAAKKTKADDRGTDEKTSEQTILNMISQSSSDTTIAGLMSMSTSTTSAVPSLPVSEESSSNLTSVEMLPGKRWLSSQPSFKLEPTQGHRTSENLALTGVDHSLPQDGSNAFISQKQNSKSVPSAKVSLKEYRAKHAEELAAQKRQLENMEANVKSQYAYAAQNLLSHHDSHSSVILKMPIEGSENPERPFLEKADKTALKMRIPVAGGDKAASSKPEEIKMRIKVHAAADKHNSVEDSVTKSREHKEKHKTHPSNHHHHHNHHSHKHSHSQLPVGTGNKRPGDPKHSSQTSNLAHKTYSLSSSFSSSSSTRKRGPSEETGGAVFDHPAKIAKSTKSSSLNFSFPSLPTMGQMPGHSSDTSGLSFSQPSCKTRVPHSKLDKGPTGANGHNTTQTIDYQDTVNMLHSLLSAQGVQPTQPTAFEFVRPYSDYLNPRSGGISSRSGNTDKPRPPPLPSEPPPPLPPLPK
Sequence of CDK8 (P49336 whole entry): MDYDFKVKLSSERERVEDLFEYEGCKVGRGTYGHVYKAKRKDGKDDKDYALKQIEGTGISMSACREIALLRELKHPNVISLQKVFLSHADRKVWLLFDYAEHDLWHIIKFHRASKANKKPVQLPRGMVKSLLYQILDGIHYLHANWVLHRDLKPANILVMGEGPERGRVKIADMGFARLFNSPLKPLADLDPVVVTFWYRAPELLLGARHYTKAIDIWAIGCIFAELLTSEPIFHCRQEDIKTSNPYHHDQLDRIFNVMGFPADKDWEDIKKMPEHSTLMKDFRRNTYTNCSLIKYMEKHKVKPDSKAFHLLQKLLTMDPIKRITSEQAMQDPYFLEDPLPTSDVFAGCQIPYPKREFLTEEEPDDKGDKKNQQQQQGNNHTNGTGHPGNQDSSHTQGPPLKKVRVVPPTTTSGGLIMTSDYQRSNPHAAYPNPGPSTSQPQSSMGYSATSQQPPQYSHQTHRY
Sequence of CDK8 (P24863 whole entry partner): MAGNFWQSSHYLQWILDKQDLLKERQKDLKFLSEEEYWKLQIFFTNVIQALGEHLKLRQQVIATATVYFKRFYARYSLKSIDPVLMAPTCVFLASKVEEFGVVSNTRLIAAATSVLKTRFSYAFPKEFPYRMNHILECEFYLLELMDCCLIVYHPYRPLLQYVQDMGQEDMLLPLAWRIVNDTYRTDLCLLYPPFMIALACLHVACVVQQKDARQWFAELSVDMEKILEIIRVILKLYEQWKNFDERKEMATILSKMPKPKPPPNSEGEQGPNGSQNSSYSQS

| Compound | IC50 [1] [µM] | IC50 [2] [µM] | IC50 [3] [µM] | IC50 [4] [µM] | LE [5] | LLE [5] | IC50 [6] [µM] | IC50 [7] [µM] | IC50 [8] [µM] | IC50 [9, 11] [µM] | melting point [°C] | IC50 [9, 12] [µM] | IC50 [10] [µM] |
| --- | --- | --- | --- | --- | --- | --- | --- | --- | --- | --- | --- | --- | --- |
| NS(=O)(=O)c1cccc(Nc2nccc(-c3ccccn3)n2)c1 [Compound 5h, 3-((4-(Pyridin-2-yl)pyrimidin-2-yl)amino)benzenesulfonamide] | 3.18 | 35.1 ± 2.3 | 6.56 | 25.4 ± 1.9 | 0.3868 | 4.8844 | > 100 | 14.3 ± 1.2 | 28 ± 2.1 | 0.191 | – | – | – |
| NS(=O)(=O)c1cccc(Nc2nccc(-c3ccc(OC(F)(F)F)cc3)n2)c1 [Compound 5e, 3-((4-(4-(Trifluoromethoxy)phenyl)pyrimidin-2-yl)amino)benzenesulfonamide] | 1.1 | 56.6 ± 3.1 | 1.89 | 38.8 ± 2.5 | 0.3129 | 2.7773 | 64.3 ± 3.9 | 74 ± 4.2 | 81.3 ± 4.1 | 0.149 | 252 to 254 | – | – |
| N#Cc1cnc(Nc2cccc(S(N)(=O)=O)c2)nc1-c1ccc(F)cc1 [Compound 5l, 3-((5-Cyano-4-(4-fluorophenyl)pyrimidin-2-yl)amino)benzenesulfonamide] | 1.92 | 83.7 ± 4.6 | 1.65 | 74.9 ± 3.7 | 0.3394 | 3.9856 | 39.3 ± 2.7 | 46 ± 2.6 | 56.2 ± 3.2 | – | – | 0.967 | – |
| N#Cc1cnc(N)nc1-c1ccc(F)cc1 [Compound 3h, 2-amino-4-(4-fluorophenyl)pyrimidine-5-carbonitrile] | – | 94.2 ± 5.3 | – | 82.5 ± 4.1 | – | – | > 100 | 59 ± 3.4 | 67 ± 3.5 | – | 214 to 216 | – | – |
| Nc1nccc(-c2ccc(Cl)cc2)n1 [Compound 3b, 4-(4-chlorophenyl)pyrimidin-2-amine] | – | 29.1 ± 2 | – | 15.2 ± 1.2 | – | – | 93.9 ± 5.1 | 10.2 ± 0.9 | 18.9 ± 1.3 | – | – | – | – |
| COc1ccc(-c2ccnc(Nc3cccc(S(N)(=O)=O)c3)n2)cc1 [Compound 5c, 3-((4-(4-Methoxyphenyl)pyrimidin-2-yl)amino)benzenesulfonamide] | 0.966 | 38.1 ± 2.4 | 6.3 | 29.8 ± 2.1 | 0.3538 | 4.0076 | 56.3 ± 3.4 | 16.1 ± 1.3 | 24.4 ± 1.8 | 0.246 | – | – | – |
| NS(=O)(=O)c1cccc(Nc2nccc(-c3ccc([N+](=O)[O-])cc3)n2)c1 [Compound 5g, 3-((4-(4-Nitrophenyl)pyrimidin-2-yl)amino)benzenesulfonamide] | 1.34 | 57.5 ± 3.4 | 4.19 | 42.6 ± 2.4 | 0.3393 | 4.8413 | 31.1 ± 2.3 | 68.2 ± 3.9 | 84.6 ± 4.3 | – | 265 to 267 | 1.74 | – |
| NS(=O)(=O)c1cccc(Nc2nccc(-c3cnccn3)n2)c1 [Compound 5j, 3-((4-(Pyrazin-2-yl)pyrimidin-2-yl)amino)benzenesulfonamide] | 1.46 | > 100 | 4.05 | 92.4 ± 4.8 | 0.3867 | 5.5526 | 60.5 ± 3.7 | 71.3 ± 4 | 85.3 ± 4.3 | 0.111 | 288 to 290 | – | – |
| N#Cc1cnc(Nc2cccc(S(N)(=O)=O)c2)nc1-c1ccc(Cl)cc1 [Compound 5k, 3-((4-(4-Chlorophenyl)-5-cyanopyrimidin-2-yl)amino)benzenesulfonamide] | 1.73 | 75.3 ± 4.3 | 3.66 | 66.2 ± 3.4 | 0.3384 | 3.4615 | 27.1 ± 2.2 | 39.5 ± 2.3 | 48.6 ± 2.7 | – | – | 0.613 | – |
| N#Cc1cnc(N)nc1-c1ccccc1 [Compound 3f, 2-amino-4-phenylpyrimidine-5-carbonitrile] | – | 30.5 ± 2.1 | – | 18.2 ± 1.4 | – | – | 55.2 ± 3.2 | 6.08 ± 0.4 | 8.18 ± 0.8 | – | – | – | – |
| COc1ccc(-c2ccnc(N)n2)cc1 [Compound 3c, 4-(4-methoxyphenyl)pyrimidin-2-amine] | – | > 100 | – | 86.2 ± 4.3 | – | – | 58.1 ± 3.6 | 62.1 ± 3.6 | 74.4 ± 3.7 | – | – | – | – |
| NS(=O)(=O)c1cccc(Nc2nccc(-c3ccc(C(F)(F)F)cc3)n2)c1 [Compound 5d, 3-((4-(4-(Trifluoromethyl)phenyl)pyrimidin-2-yl)amino)benzenesulfonamide] | 0.661 | 33.8 ± 2.2 | 0.716 | 22.2 ± 1.7 | 0.3254 | 3.0453 | 51.9 ± 3.1 | 8.72 ± 0.7 | 11.7 ± 1 | 0.0729 | 150 to 152 | – | 1 to 10 |
| Nc1nccc(-c2ccc(C(F)(F)F)cc2)n1 [Compound 3d, 4-(4-(trifluoromethyl)phenyl)pyrimidin-2-amine] | – | > 100 | – | > 100 | – | – | > 100 | 87.1 ± 4.6 | 91.7 ± 4.9 | – | – | – | – |
| NS(=O)(=O)c1cccc(Nc2nccc(-c3ccc(Cl)cc3)n2)c1 [Compound 5b, 3-((4-(4-Chlorophenyl)pyrimidin-2-yl)amino)benzenesulfonamide] | 3.01 | 53.8 ± 2.9 | 3.81 | 36.3 ± 2.3 | 0.3683 | 3.3262 | 78.5 ± 4.4 | 43.7 ± 2.5 | 40.9 ± 2.4 | 0.0589 | – | – | – |
| NS(=O)(=O)c1cccc(Nc2nccc(-c3ccc(F)cc3)n2)c1 [Compound 5f, 3-((4-(4-Fluorophenyl)pyrimidin-2-yl)amino)benzenesulfonamide] | 0.479 | 65.9 ± 3.7 | 1.53 | 51.4 ± 2.8 | 0.3694 | 3.8517 | 26.9 ± 2 | 57.2 ± 3.2 | 46.8 ± 2.6 | 0.2 | – | – | – |
| Nc1nccc(-c2ccc(OC(F)(F)F)cc2)n1 [Compound 3e, 4-(4-(trifluoromethoxy)phenyl)pyrimidin-2-amine] | – | 61.3 ± 3.5 | – | 47 ± 2.6 | – | – | 74.6 ± 4.2 | 26.3 ± 1.8 | 39.1 ± 2.3 | – | – | – | – |
| N#Cc1cnc(Nc2ccccc2)nc1-c1ccccc1 [Compound 5m, 4-Phenyl-2-(phenylamino)pyrimidine-5-carbonitrile] | 0.703 | 23.6 ± 1.5 | 1.43 | 9.83 ± 0.7 | 0.4289 | 2.9828 | 73.3 ± 4.1 | 76.3 ± 4.3 | 88.4 ± 4.6 | – | – | 1.96 | – |
| COc1cccc2c1C(=O)c1c(O)c3c(c(O)c1C2=O)C[C@@](O)(C(=O)CO)C[C@@H]3O[C@H]1C[C@H](N)[C@H](O)[C@H](C)O1 [DOX, Doxorubicin, reference compound] | – | – | – | – | – | – | – | – | 4.5 ± 0.2 | – | – | – | – |
| N#Cc1cnc(N)nc1-c1ccc(Cl)cc1 [Compound 3g, 2-amino-4-(4-chlorophenyl)pyrimidine-5-carbonitrile] | – | 45 ± 2.6 | – | 34.7 ± 2.1 | – | – | 82.7 ± 4.8 | 52.9 ± 2.9 | 44.2 ± 2.5 | – | – | – | – |
| NS(=O)(=O)c1cccc(Nc2nccc(-c3ccncc3)n2)c1 [Compound 5i, 3-((4-(Pyridin-4-yl)pyrimidin-2-yl)amino)benzenesulfonamide] | 4.33 | 72.2 ± 4 | 4.37 | 63.7 ± 3.2 | 0.3868 | 4.9754 | 19.7 ± 1.3 | 32.2 ± 2.1 | 52.6 ± 2.9 | 1.67 | – | 1.67 | – |
| NS(=O)(=O)c1cccc(Nc2nccc(-c3ccccc3)n2)c1 [Compound 5a, 3-((4-Phenylpyrimidin-2-yl)amino)benzenesulfonamide] | 0.875 | 25.9 ± 1.8 | 2.3 | 11.5 ± 0.9 | 0.3869 | 3.9758 | 37.9 ± 2.5 | 3.84 ± 0.2 | 7.84 ± 0.6 | – | – | 0.449 | 1 to 10 |
